Measurements: patent US20160137746A1, “METHODS FOR TREATING HIGH CARDIOVASCULAR RISK PATIENTS WITH HYPERCHOLESTEROLEMIA” (Sanofi Biotechnology, priority 2014, published 2016)
“And” between values parts separate entries of the source, which are not always exact repeats. Identical values can stand only once.

Tests used:
[1] = test system: high cardiovascular risk patients with hypercholesterolemia; assay: ODYSSEY LONG TERM: lipid efficacy of alirocumab 150 mg Q2W vs placebo; format: in vivo, human
Procedure: Patients were stratified according to heFH population, prior history of MI or ischemic stroke, statin treatment and geographic region. Patients at high cardiovascular risk were defined as 1) having heFH (who may or may not have CHD/CHD risk equivalents) or 2) no prior diagnosis of heFH but having hypercholesterolemia together with established CHD or CHD risk equivalents.
Primary analyses of efficacy endpoints were conducted using an ITT approach (based on the ITT population defined above), including all lipid data, regardless of whether the patient was continuing therapy or not. This corresponds to ITT estimands, defined for primary and key secondary endpoints. In addition, analyses were also conducted using an on-treatment approach (based on the mITT population defined above), including lipid data collected during the efficacy treatment period. This corresponds to on-treatment estimands of key secondary endpoints.
With regards to the primary efficacy analysis (ITT approach), the percent change in calculated LDL-C from baseline to Week 24 was analyzed using a mixed-effect model with repeated measures (MMRM) approach. All post-baseline data available from Week 4 to Week 52 analysis windows were used and missing data were accounted for by the MMRM. […] This model provided baseline adjusted least-squares means (LSmeans) estimates at Week 24 for both treatment groups with their corresponding SEs and 95% confidence intervals.
Continuous secondary variables anticipated to have a normal distribution (i.e., lipids other than TGs and Lp(a)) were analyzed using the same MMRM model as for the primary endpoint. […] Combined estimate for mean in both treatment groups, as well as the differences of these estimates, with their corresponding SEs, 95% Cls and p-value were provided (through SAS MIANALYZE procedure).
Binary secondary efficacy endpoints were analyzed using multiple imputation approach for handling of missing values followed by stratified logistic regression with treatment group as main effect and corresponding baseline value(s) as covariate, stratified by randomization factors (as per IVRS). Combined estimates of odds ratio versus placebo, 95% CI, and p-value were provided (through SAS MIANALYZE procedure).

[2] = test system: high cardiovascular risk patients with hypercholesterolemia; assay: ODYSSEY LONG TERM: ophthalmologic sub-study; format: in vivo, human; details: including the ophthalmological sub-study
Text: Patients underwent ophthalmologic assessments by ophthalmologists/optometrists at the screening period. If the patients were deemed eligible for the main study trial and fulfilled the additional eligibility criteria for the sub-study, then the patients underwent ophthalmologic assessments every 6 months during the 18-month double-blind treatment period
The primary endpoint was adverse events related to ophthalmologic abnormalities (using SMQ “optic nerve disorders”, “retinal disorders” and “corneal disorders”) over the study duration.

[3] = test system: high cardiovascular risk patients with hypercholesterolemia; details: in vivo
Procedure: Safety was assessed through adverse event (AE) reporting (including adjudicated cardiovascular events), laboratory analyses, and vital signs measurement. Since the LDL-C-lowering effects of PCSK9 inhibition on top of a statin are unknown, a number of AEs were defined as being of special interest and were monitored, including alanine aminotransferase abnormalities, allergic events, hemolytic anemia, pregnancy, overdose with study drug, neurologic events, ophthalmic events, and local injection site reactions. AEs were determined to be of special interest based on review of previous clinical trials, correspondence with regulatory authorities and the Data Monitoring Committee, the use of a monoclonal antibody in this study, and the route of drug administration.
AEs (including adjudicated cardiovascular events), laboratory parameters, and vital signs were reported descriptively, based on the safety population (all randomized patients who received at least 1 dose or partial dose of study treatment). The safety analysis focused on the treatment-emergent AE period defined as the time from the first double-blind dose to the last double-blind dose of the investigational product +70 days (10 weeks).
The safety population included all randomized patients who received at least one dose or part of a dose of the double-blind IMP.
Safety analyses were descriptive, performed on the safety population according to treatment actually received. For analysis of TEAE and PCSA, the safety analysis focused on the TEAE period defined as the time from the first dose of double-blind IMP up to 70 days after the last double-blind injection.

[4] = Week 24, total PCSK9 levels at or above the median
[5] = Week 24, total PCSK9 levels below the median
[6] = Week 24, ITT population, MMRM, alirocumab 150 Q2W
[7] = subgroup baseline HDL-C <40 mg/dL/<1.04 mmol/L, ITT
[8] = subgroup baseline HDL-C ≧40 mg/dL/≧1.04 mmol/L, ITT
[9] = subgroup baseline calculated LDL-C <100 mg/dL/<2.59 mmol/L, ITT
[10] = subgroup baseline calculated LDL-C ≧160 mg/dL/≧4.14 mmol/L, ITT
[11] = subgroup baseline calculated LDL-C ≧100 to <130 mg/dL/≧2.59 to <3.37 mmol/L, ITT
[12] = subgroup baseline calculated LDL-C ≧130 to <160 mg/dL/≧3.37 to <4.14 mmol/L, ITT

Alirocumab: human anti-PCSK9 antibody; HCVR SEQ ID NO:1, LCVR SEQ ID NO:6; CDRs SEQ ID NOs 2/3/4/7/8/10
Calculated LDL-C percent change, treatment effect versus placebo ([1]; Week 24, patients with baseline LDL-C <100 mg/dL): −75.0% | Calculated LDL-C percent change, treatment effect versus placebo ([1]; Week 24, patients with baseline LDL-C ≧160 mg/dL): −41.3% | Calculated LDL-C percent change, LS mean difference vs placebo [1, 4]: −66.0% | Calculated LDL-C, LS mean percent change from baseline [1, 4]: −62.1% | Calculated LDL-C percent change, LS mean difference vs placebo [1, 5]: −57.3% | Calculated LDL-C, LS mean percent change from baseline [1, 5]: −60.1% | Calculated LDL-C percent change, LS mean difference vs placebo ([1]; Week 24, women): −56.6% | Calculated LDL-C, LS mean percent change from baseline ([1]; Week 24, women): −53.4% | Apo A1, LS mean (SE) change from baseline to Week 24 (%) ([1]; Week 24, ITT population): 4.0 (0.4) % | Apo B, LS mean (SE) change from baseline to Week 24 (%) ([1]; Week 24, ITT population): −52.8 (0.7) % | Fasting triglycerides, combined estimate for adjusted mean (SE) change from baseline to Week 24 (%) ([1]; Week 24, ITT population): −15.6 (0.8) % | HDL-C, LS mean (SE) change from baseline to Week 24 (%) ([1]; Week 24, ITT population): 4.0 (0.4) % | Lipoprotein (a), combined estimate for adjusted mean (SE) change from baseline to Week 24 (%) ([1]; Week 24, ITT population): −29.3 (0.7) % | Non-HDL-C, LS mean (SE) change from baseline to Week 24 (%) ([1]; Week 24, ITT population): −51.6 (0.6) % | Proportion (%) of patients reaching calculated LDL-C levels at Week 24: <70 mg/dL (regardless of risk) ([1]; Week 24, ITT population): 79.3% | Proportion (%) of patients reaching calculated LDL-C levels at Week 24: <70 mg/dL (very high risk) or <100 mg/dL (high risk) ([1]; Week 24, ITT population): 80.7% | Total cholesterol, LS mean (SE) change from baseline to Week 24 (%) ([1]; Week 24, ITT population): −37.8 (0.5) % | Calculated LDL-C Week 24 percent change from baseline, LS mean difference (SE) vs placebo ([1]; Week 24, ITT population, MMRM): −61.9 (1.3) % | Calculated LDL-C percent change from baseline, LS mean (SE) [1, 6]: −61.0 (0.7) % and −61.0% | Calculated LDL-C value (absolute level), LS mean (SE) [1, 6]: 48.3 (0.9) mg/dL | Calculated LDL-C value, LS mean (SE) [1, 6]: 1.252 mmol/L | LS mean (SE) change from baseline to Week 24 in measured LDL-C ([1]; Week 24, ITT, LDL-cholesterol measured by beta-quantification): −57.8 (0.8) % | Apo-B - Percent change from baseline to Week 24, LS mean difference vs. placebo ([1]; Week 24, On-treatment): placebo of −55.5% | Calculated LDL-C - Percent change from baseline to Week 24, LS mean difference vs. placebo ([1]; Week 24, On-treatment): placebo of −63.5% | Non-HDL-C - Percent change from baseline to Week 24, LS mean difference vs. placebo ([1]; Week 24, On-treatment): placebo of −53.7% | LS mean absolute LDL-C reduction ([1]; Week 24, subgroup baseline calculated LDL-C <100 mg/dL/<2.59 mmol/L, ITT): -51.6 mg/dL | LS mean absolute LDL-C reduction ([1]; Week 24, subgroup baseline calculated LDL-C ≧160 mg/dL/≧4.14 mmol/L, ITT): -115.8 mg/dL | LS mean absolute LDL-C reduction ([1]; Week 24, subgroup baseline calculated LDL-C ≧100 to <130 mg/dL/≧2.59 to <3.37 mmol/L, ITT): -71.2 mg/dL | LS mean absolute LDL-C reduction ([1]; Week 24, subgroup baseline calculated LDL-C ≧130 to <160 mg/dL/≧3.37 to <4.14 mmol/L, ITT): -85.3 mg/dL | Calculated LDL-C percent change from baseline, LS mean (SE) ([1]; Week 36, ITT population, MMRM, alirocumab 150 Q2W): −59.5% | Calculated LDL-C percent change from baseline, LS mean (SE) ([1]; Week 52, ITT population, MMRM, alirocumab 150 Q2W): −56.8% | Additional LDL-C reduction from baseline versus placebo ([1]; Week 78): 56% | Percentage change from baseline to Week 78 in calculated LDL-C ([1]; Week 78, ITT population): −52.4 (0.9) % | Percentage change from baseline to Week 78 in calculated LDL-C, LS mean difference (SE) vs placebo ([1]; Week 78, ITT population): −56.0 (1.6) % | Percent decrease in LDL cholesterol ([1]; intention-to-treat, Week 24 (final analysis)): 61% | Percent change from baseline in calculated LDL-C at week 24, LS mean difference (SE) vs placebo [1, 7]: −66.1 (2.8) % | Percent change from baseline in calculated LDL-C at week 24, LS means (SE) [1, 7]: −65.5 (1.6) % | Percent change from baseline in calculated LDL-C at week 24, LS mean difference (SE) vs placebo [1, 8]: −60.8 (1.4) % | Percent change from baseline in calculated LDL-C at week 24, LS means (SE) [1, 8]: −59.9 (0.8) % | Percent change from baseline in calculated LDL-C at week 24, LS mean difference (SE) vs placebo [1, 9]: −75.0 (2.2) % | Percent change from baseline in calculated LDL-C at week 24, LS means (SE) [1, 9]: −61.3 (1.3) % | Percent change from baseline in calculated LDL-C at week 24, LS mean difference (SE) vs placebo [1, 10]: −41.3 (3.3) % | Percent change from baseline in calculated LDL-C at week 24, LS means (SE) [1, 10]: −59.5 (1.9) % | Percent change from baseline in calculated LDL-C at week 24, LS mean difference (SE) vs placebo [1, 11]: −62.5 (2.0) % | Percent change from baseline in calculated LDL-C at week 24, LS means (SE) [1, 11]: −62.0 (1.2) % | Percent change from baseline in calculated LDL-C at week 24, LS mean difference (SE) vs placebo [1, 12]: −54.6 (2.9) % | Percent change from baseline in calculated LDL-C at week 24, LS means (SE) [1, 12]: −59.8 (1.7) % | TEAEs related to ophthalmological events [2]: no particular signal was detected | SOC infections and infestations [3]: 37.2% | Urinary tract infection (TEAE preferred term) [3]: 13 (6.3) No. (%) of patients
